Reference: patent EP4715056A1, “BIO-BASED TRANS-ACONITATE, PREPARATION METHOD THEREFOR AND USE THEREOF” (Qingdao Institute of Bioenergy and Bioprocess Technology, …, priority 2023, dated 2024)
Counter-ions that a name gives are not always drawn. Like-named read-outs stand apart in the source and are kept apart here.

Assays:
[1] = Hardness (Shore hardness tester, GB/T 531-2008); format: physicochemical; settings: composite: 100 parts PVC resin (K value 60, polydispersity index 4), 30 parts plasticizer, 2 parts oxidized polyethylene wax, 5 parts octyltin maleate
Description: The aconitates and tributyl citrate prepared in the above examples and comparative examples were added as plasticizers to PVC resin to obtain PVC plastics. […] The above raw materials were mixed and prepared using the same mixing process to obtain finished PVC products. The performance tests were performed on different plasticizers and the obtained PVC finished products in the above examples and comparative examples. […] Three points were selected for each group of samples, each point was tested once, and a median value was taken. • 2. […] Compatibility: tests were performed using a water value method. Since water molecules are polar, the compatibility between the plasticizer and water can characterize the compatibility between the plasticizer and polar materials (PVC, PLA, and nitrile rubber). When a certain plasticizer has good compatibility with water, it has good compatibility with PVC, and vice versa. In the experiment, 2.5 g of plasticizer and 25 g of acetone were added to a beaker, titrated with a burette filled with deionized water, and agitated while titrating until turbidity appears, and the volume of deionized water consumed was recorded. • 4. Glass transition temperature (Tg): the glass transition temperature was tested using a dynamic mechanical analyzer. Test conditions: nitrogen was taken as the carrier gas, at a test temperature range of -40 to 80°C, a heating rate of 3°C/min, and a frequency of 1 Hz.

[2] = Compatibility (water value method); format: physicochemical; settings: water value of the plasticizer, Table 9
Description: The aconitates and tributyl citrate prepared in the above examples and comparative examples were added as plasticizers to PVC resin to obtain PVC plastics. The PVC plastics include 100 parts of PVC resin, 35 parts of plasticizer, 2 parts of oxidized polyethylene wax, and 5 parts of octyltin maleate. The above raw materials were mixed and prepared using the same mixing process to obtain finished PVC products. The performance tests were performed on different plasticizers and the obtained PVC finished products in the above examples and comparative examples. […] Three points were selected for each group of samples, each point was tested once, and a median value was taken. • 2. […] Compatibility: tests were performed using a water value method. Since water molecules are polar, the compatibility between the plasticizer and water can characterize the compatibility between the plasticizer and polar materials (PVC, PLA, and nitrile rubber). When a certain plasticizer has good compatibility with water, it has good compatibility with PVC, and vice versa. In the experiment, 2.5 g of plasticizer and 25 g of acetone were added to a beaker, titrated with a burette filled with deionized water, and agitated while titrating until turbidity appears, and the volume of deionized water consumed was recorded. • 4. Glass transition temperature (Tg): the glass transition temperature was tested using a dynamic mechanical analyzer. Test conditions: nitrogen was taken as the carrier gas, at a test temperature range of -40 to 80°C, a heating rate of 3°C/min, and a frequency of 1 Hz.

[3] = Volatility loss rate (activated carbon method, HG/T 4458-2012); format: physicochemical; settings: PVC composite with 30 parts plasticizer; 70°C for 24 h
Description: (§1) The above plasticizer is the mixed aconitates prepared in Example 37, and composite materials are prepared according to the above weight ratio and preparation method respectively. At the same time, dioctyl phthalate, tributyl citrate, tributyl aconitate and triisooctyl aconitate are respectively selected as plasticizers to prepare composite materials according to the above weight ratio and preparation method. The test method is the same as that in Test 2 except for the following: • 1. Volatility loss rate: tests were performed in accordance with HG/T 4458-2012 Plastics - Determination of Plasticizer Loss by Activated Carbon Method at a test temperature of 70°C for 24 h. • 2. Water extraction rate: tests were performed in accordance with the standard ISO 175-2011 Test Method for Determination of Immersion Effects of Plastics in Liquid Chemicals at room temperature for 72 h, with deionized water as the extraction solvent. • 3. Ethanol extraction rate: tests were performed in accordance with the standard ISO 175-2011 Test Method for Determination of Immersion Effects of Plastics in Liquid Chemicals at room temperature for 72 h, with ethanol as the extraction solvent. • 4. Petroleum ether extraction rate: tests were performed in accordance with the standard ISO 175-2011 Test Method for Determination of Immersion Effects of Plastics in Liquid Chemicals at room temperature for 72 h, with petroleum ether as the extraction solvent. • 5. Migration rate: tests were performed in accordance with HG/T 4458-2012 Determination of Plasticizer Migration in Plastics at a test temperature of 50°C for 48 h. The materials of absorbent sheets are polyethylene (PE) without additives and standard natural rubber (NR).

[4] = Water extraction rate (ISO 175-2011); format: physicochemical; settings: PVC composite with 30 parts plasticizer; room temperature, 72 h, deionized water
Description: as §1

[5] = Ethanol extraction rate (ISO 175-2011); format: physicochemical; settings: PVC composite with 30 parts plasticizer, room temperature, 72 h
Description: as §1

[6] = Petroleum ether extraction rate (ISO 175-2011); format: physicochemical; settings: PVC composite with 30 parts plasticizer, room temperature, 72 h
Description: as §1

[7] = Plasticizer migration rate to PE (HG/T 4458-2012); format: physicochemical; settings: PVC composite with 30 parts plasticizer; 50°C for 48 h
Description: as §1

[8] = Plasticizer migration rate to NR (HG/T 4458-2012); format: physicochemical; settings: PVC composite with 30 parts plasticizer; 50°C for 48 h
Description: as §1

[9] = Tensile properties (GB/T 1040-2006): tensile modulus at 100%, elongation at break, elastic modulus; format: physicochemical; settings: PVC composite with 30 parts plasticizer, Table 9
[10] = Glass transition temperature (dynamic mechanical analyzer); format: physicochemical; settings: PVC composite with 30 parts plasticizer, Table 10
[11] = system: Aspergillus terreus engineered strains; format: cell-based; settings: for effect on the yield of trans-Aconitic acid: additionally added at certain doses, shake flask; for increase of the yield of trans-Aconitic acid: 96 hours of shake flask fermentation
Description: Additional supplementation experiments were performed on differential amino acids and vitamins between high-yield and low-yield corn steep liquor powders. Based on the high-yield corn steep liquor powder medium, fermentation verification was performed by adding differential amino acid components and vitamin components separately. Each group was set up with three parallel replicates. After 96 hours of shake flask fermentation, the supernatant of the fermentation broth was collected for quantitative analysis using HPLC detection.

[12] = system: Aspergillus terreus engineered strains; format: cell-based; settings: 30 L fermenter
Description: Meanwhile, the medium without added amino acids was used as a control to compare the fermentation yields. […] The primary and secondary seed media were: 150 g/L glucose monohydrate, 4 g/L ammonium sulfate, 2 g/L corn steep liquor powder, 0.4 g/L magnesium sulfate heptahydrate, 0.06 g/L ferrous sulfate heptahydrate, 0.01 g/L diammonium hydrogen phosphate, 40 mg/L zinc sulfate, 40 mg/L copper sulfate, and 0.5 g/L sodium chloride; no L-Trp or L-Met was added to the primary and secondary media. The tertiary fermentation medium was the same as the secondary seed medium, but L-Trp or L-Met was added. The control parameters of the 30 L fermenter were as follows: 300 to 480 rpm, dissolved oxygen (DO) level maintained at 25% to 29%, aeration rate at 20 L/min; DO control was linked during agitation. The control parameters of the 100 L fermenter were as follows: 250 to 280 rpm, DO controlled from 25 to 30% during agitation linkage, and aeration rate controlled f […].

[13] = system: Aspergillus niger engineered strains; settings: shake flask, addition amount 0.12 g/L
Description: Nutritional factor optimization experiments were performed on the trans-Aconitic acid-producing Aspergillus niger engineered strains constructed in Example 1. Amino acid components were added for fermentation verification using the high-yield corn steep liquor powder medium as the basis.

[14] = system: Aspergillus niger engineered strains; settings: 30 L fermenter, after 132 h of fermentation
Description: Fermentation was performed in a 30 L fermenter using the medium added with L-methionine. The control parameters were as follows: 300 to 480 rpm, DO level maintained at 25 to 29%, and aeration rate controlled at 20 L/min.

Row | SMILES | Hardness/Shore D [1] | Compatibility [2] | Volatility loss rate [3] | Water extraction rate [4] | Ethanol extraction rate [5] | Petroleum ether extraction rate [6] | Migration rate to PE [7] | Migration rate to NR [8] | Elastic modulus [9] | Elongation at break [9] | Tensile modulus at 100% [9] | Tg [10] | effect on the yield of trans-Aconitic acid [11] | further results
1 | CCCCCCCCOC(=O)c1ccccc1C(=O)OCCCCCCCC [Dioctyl Phthalate, dioctyl phthalate] | 78 Shore D | 7.1 mL | 0.96% | 0.32% | 5.13% | 6.12% | 0.83% | 0.81% | 487.3 MPa | 134.9% | 15.1 MPa | 48.5 °C |  | 
2 | NCC(=O)O [L-glycine] |  |  |  |  |  |  |  |  |  |  |  |  | varying degrees of decrease | 
3 | CC[C@H](C)[C@H](N)C(=O)O [L-isoleucine] |  |  |  |  |  |  |  |  |  |  |  |  | varying degrees of decrease | 
4 | CC(C)C[C@H](N)C(=O)O [L-leucine] |  |  |  |  |  |  |  |  |  |  |  |  |  | increase of the yield of trans-Aconitic acid ([11]; addition of 0.125 g/L): 42%
5 | NCCCC[C@H](N)C(=O)O [L-lysine] |  |  |  |  |  |  |  |  |  |  |  |  | varying degrees of decrease | 
6 | CSCC[C@H](N)C(=O)O [L-methionine] |  |  |  |  |  |  |  |  |  |  |  |  |  | increase of the yield of trans-Aconitic acid ([11]; addition of 0.115 g/L): 86.5%; final fermentation yield of trans-Aconitic acid ([12]; 0.115 g/L added (26 g/L without adding amino acid)): 65 g/L; yield of the recombinant engineered strains [13]: 31.76 g/L; TAA yield [14]: 60 g/L
7 | O=C(O)[C@@H]1CCCN1 [L-proline] |  |  |  |  |  |  |  |  |  |  |  |  | varying degrees of decrease | 
8 | N[C@@H](Cc1c[nH]c2ccccc12)C(=O)O [L-tryptophan] |  |  |  |  |  |  |  |  |  |  |  |  |  | increase of the yield of trans-Aconitic acid ([11]; addition of 0.099 g/L): 46.2%; increase of the yield of trans-Aconitic acid ([11]; addition of 0.2 g/L): 20.7%; yield of trans-Aconitic acid ([12]; 0.099 g/L added, at 60 h (26 g/L without adding amino acid)): 41.95 g/L
9 | CCCCOC(=O)C=C(CC(=O)OCCCC)C(=O)OCCCC [Tributyl aconitate, tributyl aconitate] | 45 Shore D | 16.7 mL | 1.08% | 0.36% | 3.71% | 6.03% | 1.26% | 1.31% | 130.5 MPa | 257.4% | 8.2 MPa | 28.1 °C |  | 
10 | CCCCOC(=O)CC(O)(CC(=O)OCCCC)C(=O)OCCCC [Tributyl citrate, tributyl citrate] | 77 Shore D | 14.3 mL | 3.87% | 1.16% | 4.96% | 8.91% | 2.12% | 2.71% | 426.5 MPa | 146.3% | 13.6 MPa | 38.3 °C |  | 
11 | CC(C)CCCCCOC(=O)C=C(CC(=O)OCCCCCC(C)C)C(=O)OCCCCCC(C)C [Triisooctyl aconitate, triisooctyl aconitate] | 71 Shore D | 10.9 mL | 0.38% | 0.14% | 14.52% | 16.44% | 0.13% | 0.18% | 397.1 MPa | 156.3% | 16.1 MPa | 43.5 °C |  | 
12 | O=C(O)CCCC[C@@H]1SC[C@@H]2NC(=O)N[C@@H]21 [biotin-vitamin B7, biotin] |  |  |  |  |  |  |  |  |  |  |  |  |  | increase of the yield of trans-Aconitic acid ([11]; addition of 0.11 g/L): 17.5%
13 | CC(O)C(=O)O (centres unmarked) [lactic acid] |  |  |  |  |  |  |  |  |  |  |  |  | varying degrees of decrease | 
